From patent US20250032476A1, “ALPHA-2A ADRENERGIC RECEPTOR MODULATORS AND USES THEREOF” (The Regents of the University of California, priority 2021, published 2025)
“Also recorded” adds a separate entry of the source. Where two headings read alike, the source gives them in different places.

Legend:
[1] = test system: CFA mice; assay: Complete Freund's Adjuvant (CFA) inflammatory pain model, Hargreaves test; conditions: mouse, in vivo
Experimental: The CFA model of chronic inflammation was induced as described previously (96). Briefly, CFA (Sigma) was diluted 1:1 with saline and vortexed for 30 minutes. When fully suspended, we injected 20 μL of CFA into one hindpaw. Heat thresholds were measured before the injection (baseline) and 3 days after using the Hargreaves test.
The CFA model of chronic inflammation was induced as described previously (100). Briefly, CFA (Sigma) was diluted 1:1 with saline and vortexed for 30 minutes. When fully suspended, we injected 20 μL of CFA into one hindpaw. Heat thresholds were measured before the injection (baseline) and 3 days after using the Hargreaves test.

[2] = test system: imidazoline-2 receptor (I2R); assay: I2R binding (Eurofins Cerep); conditions: tested at 500 nM
[3] = test system: SNI mice; assay: Spared-nerve injury (SNI) model of neuropathic pain, von Frey mechanical thresholds; assay type: in vivo
Experimental: Spared-nerve injury (SNI) model of neuropathic pain. Under isoflurane anesthesia, two of the three branches of the sciatic nerve were ligated and transected distally, leaving the sural nerve intact. Behavior was tested 7 to 14 days after injury and in situ hybridization was performed one week post-injury.

[4] = biological target: T1, ALPHA-2A ADRENERGIC RECEPTOR (Homo sapiens (Human), UniProt P08913); assay: Arrestin recruitment; assay type: cell-based; conditions: Tables 7-9
[5] = biological target: T2, human α2AAR (Homo sapiens (Human), UniProt P08913); assay: Radioligand competition binding to human α2AAR (HEK293T membranes, [3H]RX82,1002); conditions: human α2AAR; mean ± s.e.m.; read-out: Ki for α2AAR
[6] = biological target: T2, human α2AAR; assay: β-arrestin-2 recruitment, BRET biosensor assay in HEK293T cells
Experimental: Bioluminescense resonance energy transfer. G protein mediated activation of human α2AAR and D2long was monitored with Gαi1-RLucII (71, 72) together with Gβ1 and Gγ1-GFP10. Arrestin recruitment was performed by enhanced bystander BRET using CAAX-rGFP and β-arrestin-2-RLucII as biosensors (all biosensors are provided from M. Bouvier, Université de Montréal, Canada) (71, 73) in the presence of GRK2 as described (66, 74). In brief, HEK293T cells were transfected with a total amount of 3.3 μg DNA per 10^6 cells using linear polyethyleneimine (PEI, Polysciences, 3:1 PEI:DNA ratio) and transferred into 96-well half-area plates (Greiner, Frickenhausen, Germany) at a density of 10,000 cells per well and incubated for 48 hrs. Medium was exchanged with PBS (Hank's balanced salt solution) and cells were stimulated with ligands at 37° C. for 10 min for Gαi stimulation or arrestin recruitment, respectively.

[7] = biological target: T2, human α2AAR; assay: Gαi G protein activation, BRET biosensor assay in HEK293T cells
[8] = biological target: T1, ALPHA-2A ADRENERGIC RECEPTOR; assay: Gi recruitment (G protein); assay type: cell-based; conditions: Gi recruitment, Tables 7-9
[9] = Pharmacokinetics in mice (plasma, brain, CSF); assay type: in vivo
Experimental: Pharmacokinetics. Pharmacokinetic experiments were performed by Bienta (Enamine Biology Services) in accordance with Enamine pharmacokinetic study protocols and Institutional Animal Care and Use Guidelines (protocol number 1-2/2020). […] In each compound study, nine time points (5, 15, 30, 60, 120, 240, 360, 480 and 1440 min) were collected, each of the time point treatment group included 3 animals. There was also a control group of one animal. In the ‘9087, ‘7075, ‘4622 studies, male C57BL/6N mice were used, for PS75 CD-1 mice, and for ‘2998 male Balb/cAnN mice. For all compound studies the animals were randomly assigned to the treatment groups before the pharmacokinetic study; all animals were fasted for 4 h before dosing. For injections, ‘9087 was dissolved in Captisol—water (40%:60%, w/v), ‘4622 was dissolved in a 20% Kolliphor HS—physiological saline solution, and ‘7075, PS75, and ‘2998 were dissolved in a 20% 2-HPBCD—aqueous solution. The batches of working formulations were prepared 10 minutes prior to the in vivo study.
(§1) Mice were injected i.p. with 2,2,2-tribromoethanol at 150 mg/kg prior to drawing CSF and blood. CSF was collected under a stereomicroscope from cisterna magna using 1 mL syringes. Blood collection was performed from the orbital sinus in microtainers containing K3EDTA. Animals were sacrificed by cervical dislocation after the blood samples collection. Blood samples were centrifuged 10 min at 3000 rpm. Brain samples (right lobe) were weighed and transferred into 1.5 ml tubes. All samples were immediately processed, flash-frozen and stored at −70° C. until subsequent analysis.
Plasma samples (40 μL) were mixed with 200 μL of internal standard (IS) solution. After mixing by pipetting and centrifuging for 4 min at 6000 rpm, 4 μL of each supernatant was injected into the LC-MS/MS system. Solutions of internal standards were used to quantify compounds in the plasma samples. […] After this, the samples were centrifuged for 4 min at 14,000 rpm, and supernatant was injected into LC-MS/MS system. CSF samples (2 μL) were mixed with 40 μL of an internal stock solution. After mixing by pipetting and centrifuging for 4 min at 6,000 rpm, 5 μL of each supernatant was injected into LC-MS/MS system.
(§2) Analyses of plasma, brain and CSF samples were conducted at Enamine/Bienta. The concentrations of compounds in plasma and brain samples were determined using high performance liquid chromatography/tandem mass spectrometry (HPLC-MS/MS). Data acquisition and system control was performed using Analyst 1.5.2 software (AB Sciex, Canada). […] Pharmacokinetic data analysis was performed using noncompartmental, bolus injection or extravascular input analysis models in WinNonlin 5.2 (PharSight).
as §1, with “mL” for “ml”
as §2
Additional pharmacokinetic experiments were performed by Sai Life Sciences (Hyderabad, India) in accordance with the Sai Study Protocol SAIDMPK/PK-22-04-0340. […] Testing was done in C57BL/6 mice.

[10] = biological target: α2AAR-Y431^7.43A/F (Homo sapiens, UniProt P08913, Y431A); assay: Gi activation (BRET) at α2AAR Y431^7.43 mutants; assay type: cell-based
Experimental: Investigating the sensitivity of selected ligands to the receptor mutants α2AAR-D128^3.32A, α2AAR-D128^3.32T, α2AAR-D128^3.32L, α2AAR-S215^5.42A, α2AAR-Y409^6.55A, α2AAR-Y409^6.55T, α2AAR-Y409^6.55F, α2AAR-F427^7.39F, α2AAR-Y431^7.43A, and α2AAR-Y431^7.43F was determined by monitored G protein stimulation as described above transfecting the appropriate receptor together with Gαi1-RLucII and Gβ1/Gγ1-GFP10. […] Three to ten experiments were done in duplicate.
The sensitivity of selected ligands to the receptor mutants α2AAR-D128^3.32A, α2AAR-D128^3.32T, α2AAR-D128^3.32L, α2AAR-S215^5.42A, α2AAR-Y409^6.55A, α2AAR-Y409^6.55T, α2AAR-Y409^6.55F, α2AAR-F427^7.39F, α2AAR-Y431^7.43A, and α2AAR-Y431^7.43F was monitored by G protein activation as described above transfecting the appropriate receptor together with Gαi1-RLucII and Gβ1/Gγ2-GFP10. […] Similarly, the effect of the α2AAR-D128^3.32A, α2AAR-S215^5.42A, α2AAR-Y409^6.55A, α2AAR-Y409^6.55F, α2AAR-F427^7.39F, α2AAR-Y431^7.43A, and α2AAR-Y431^7.43F mutations on arrestin recruitment was evaluated as described above transfecting the appropriate receptor together with CAAX-rGFP, GRK2 and β-arrestin-2-RLucII. Data was analyzed as ligand induced changes in BRET compared to vehicle (deltaBRET). Three to seven experiments were done in duplicate.

[11] = test system: mice; assay: Rotarod motor test (motor impairment and sedation); assay type: in vivo; conditions: 60 μg/kg
[12] = Body weight measurement over 48 hours; assay type: in vivo, mice; conditions: ‘9087 5, 10 or 20 mg/kg; dexmedetomidine 30 μg/kg
[13] = test system: mice; assay: Constipation assay (fecal pellets over 6 hours); conditions: i.p.; morphine 10 mg/kg, dexmedetomidine 30 μg/kg, ‘9087 5 mg/kg; versus vehicle
[14] = mouse, plasma, ip, I.P. 10 mg/kg

T1 sequence (P08913 whole entry): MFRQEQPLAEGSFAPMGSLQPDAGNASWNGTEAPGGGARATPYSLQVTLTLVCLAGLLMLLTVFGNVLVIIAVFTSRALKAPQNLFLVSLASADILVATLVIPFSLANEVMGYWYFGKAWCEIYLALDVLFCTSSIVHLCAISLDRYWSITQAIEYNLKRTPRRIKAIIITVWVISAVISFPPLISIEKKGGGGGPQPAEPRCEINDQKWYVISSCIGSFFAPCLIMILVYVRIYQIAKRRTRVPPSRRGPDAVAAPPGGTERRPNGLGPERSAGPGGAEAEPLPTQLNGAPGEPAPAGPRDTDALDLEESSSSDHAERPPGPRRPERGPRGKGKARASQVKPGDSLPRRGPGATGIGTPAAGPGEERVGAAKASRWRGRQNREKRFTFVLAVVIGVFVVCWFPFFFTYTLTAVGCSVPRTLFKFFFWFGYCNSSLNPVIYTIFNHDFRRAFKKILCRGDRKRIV
T2 sequence (P08913 whole entry): as above

With `Cc1cc2[nH]ncc2cc1-c1ccc(N)nc1` [Compound 2998, 5-(6-Methyl-1H-indazol-5-yl)pyridin-2-amine] the “Thermal latencies / anti-hyperalgesic effect in CFA model” value [1] was “did not”, the “I2R binding, single point radioligand experiment” value [2] was “no binding was seen” and the “Effect of atipamezole on the agonist's effect in SNI mice” value ([3]; atipamezole 2 mg/kg, 15 minutes prior) was “not significant reversal; also recorded: partially reversed”. For the same compound, the “Mechanical thresholds / anti-allodynic effect in SNI mice” value ([3]; systemic injection) was “exhibited anti-allodynic effects”, the Emax [4] was < 10% and the Ki [5] was 180 ± 34 nM. For the same compound, the EC50 [6] was 98 ± 32 nM, the Emax ([6]; HEK-293T, read-out: β-arrestin-2 Emax) was 8 ± 3% and the EC50 ([7]; Gαi EC50, BRET biosensor, HEK293T, human α2AAR) was 73 ± 14 nM. The Emax ([7]; HEK-293T, read-out: Gαi Emax) was 61 ± 3%, the EC50 ([8]; read-out: G protein EC50) was 89 nM and the Emax ([8]; read-out: G protein Emax (%)) was 60%. For the same compound, the “AUC Brain” value ([9]; I.P. 10 mg/kg) was 51700 ng·min/mL, the “Cmax Brain” value ([9]; I.P. 10 mg/kg) was 742 ng/mL and the half-life ([9]; mouse, brain, ip, I.P. 10 mg/kg, read-out: T ½ Brain (converted)) was 27.6 min. The AUC [9, 14] was 3070 ng·h/mL, the Cmax [9, 14] was 2710 ng/mL and the half-life ([9]; mouse, plasma, ip, I.P. 10 mg/kg, read-out: T ½ Plasma (converted)) was 24 min.

For `Cc1cccc([C@H](C)c2cnc[nH]2)c1C` [dexmedetomidine], the “Gi signaling at Y431^7.43A” value [10] was “essentially eliminated”, the “Sedation in rotarod test” value [11] was “completely sedating; also recorded: complete sedation” and the “Effect on body weight over 48 hours” value [12] was “no effect on body weight”. The “AUC Brain” value ([9]; I.P. 30 μg/kg) was 285 ng·min/mL and the “Cmax Brain” value ([9]; I.P. 30 μg/kg) was 8 ng/mL.

With `CN1CC[C@]23c4c5ccc(O)c4O[C@H]2[C@@H](O)C=C[C@H]3[C@H]1C5` [morphine] the Constipation [13] was “induced constipation”.
